Measurements published in US8012975B2, “Antitumoral analogs of ET-743” (Pharma Mar, S.A., priority 2000, dated 2011).
Read-outs that look alike come from different tables or passages of the source.

Experiments:
[1] = test system: A-549; experiment: Cytotoxic activity IC50, A-549
[2] = test system: P-388; experiment: Cytotoxic activity IC50, P-388
[3] = test system: HT-29; experiment: Cytotoxic activity IC50, HT-29
[4] = test system: DU-145; experiment: Cytotoxic activity IC50, DU-145
[5] = test system: MEL-28; experiment: Cytotoxic activity IC50, MEL-28
[6] = Homo sapiens, A549, read-out: CYTOTOXIC ACTIVITIY IC50 (μM) A-549, A-549
[7] = Mus musculus, P388, read-out: CYTOTOXIC ACTIVITIY IC50 (μM) P-388
[8] = Homo sapiens, HT-29, read-out: CYTOTOXIC ACTIVITIY IC50 (μM) HT-29, HT-29
[9] = Homo sapiens, DU-145, read-out: CYTOTOXIC ACTIVITIY IC50 (μM) DU-145, DU-145
[10] = Homo sapiens, SK-MEL-28, read-out: CYTOTOXIC ACTIVITIY IC50 (μM) MEL-28, MEL-28

Structure (SMILES)	IC50 [1, 6] [µM]	IC50 [2, 7] [µM]	IC50 [3, 8] [µM]	IC50 [4, 9] [µM]	IC50 [5, 10] [µM]	IC50 ([1]; read-out: CYTOTOXIC ACTIVITIY IC50 (μM) A-549, A-549) [µM]	IC50 ([2]; read-out: CYTOTOXIC ACTIVITIY IC50 (μM) P-388, P-388) [µM]	IC50 ([3]; read-out: CYTOTOXIC ACTIVITIY IC50 (μM) HT-29, HT-29) [µM]	IC50 ([4]; read-out: CYTOTOXIC ACTIVITIY IC50 (μM) DU-145, DU-145) [µM]	IC50 ([5]; read-out: CYTOTOXIC ACTIVITIY IC50 (μM) MEL-28, MEL-28) [µM]
C=CCOc1c(C)c2c(c3c1CC1[C@H]4c5c(cc(C)c(OC)c5OCOC)C[C@@H]([C@H](C#N)N1[C@H]3COC(=O)/C=C/c1ccccc1)N4C)OCO2 (some centres unmarked)	0.1	0.1	0.1	0.1	0.1	–	–	–	–	–
COCOc1c(OC)c(C)cc2c1[C@@H]1C3Cc4c(O)c(C)c5c(c4[C@H](COC(=O)/C=C/c4ccccc4)N3[C@@H](C#N)[C@H](C2)N1C)OCO5 (some centres unmarked)	0.1	0.1	0.1	0.1	0.1	–	–	–	–	–
COc1c(C)cc2c(c1O)[C@@H]1C3Cc4c(OC(C)=O)c(C)c5c(c4[C@H](CNC(=O)Cc4ccccc4)N3[C@@H](O)[C@H](C2)N1C)OCO5 (some centres unmarked) [drawing 124]	0.0007	0.0007	0.0007	0.0007	0.0007	–	–	–	–	–
COc1c(C)cc2c(c1O)[C@@H]1C3Cc4c(OC(C)=O)c(C)c5c(c4[C@H](CNC(=O)CC(C)C)N3[C@@H](O)[C@H](C2)N1C)OCO5 (some centres unmarked)	0.001	0.0008	0.0008	0.001	0.0008	–	–	–	–	–
COCOc1c(OC)c(C)cc2c1[C@@H]1C3Cc4c(OC(=O)C(F)(F)F)c(C)c5c(c4[C@H](CNC(=O)CCc4ccccc4)N3[C@@H](C#N)[C@H](C2)N1C)OCO5 (some centres unmarked)	0.5	0.5	0.5	0.5	0.5	–	–	–	–	–
C/C=C/C(=O)N[C@@H](C)C(=O)NC[C@H]1c2c(c(OC(C)=O)c(C)c3c2OCO3)CC2[C@H]3c4c(cc(C)c(OC)c4O)C[C@@H]([C@H](C#N)N21)N3C (some centres unmarked)	0.007	0.001	0.001	0.007	0.001	–	–	–	–	–
C=CCOC(=O)Oc1c(C)c2c(c3c1CC1[C@H]4c5c(cc(C)c(OC)c5O)C[C@@H]([C@H](C#N)N1[C@H]3CNC(=O)OCC(Cl)(Cl)Cl)N4C)OCO2 (some centres unmarked)	0.006	0.006	0.006	0.006	0.006	–	–	–	–	–
C=CCOc1c(C)c2c(c3c1CC1[C@H]4c5c(cc(C)c(OC)c5OCOC)C[C@@H]([C@H](C#N)N1[C@H]3COC(=O)/C=C/c1cccc(C(F)(F)F)c1)N4C)OCO2 (some centres unmarked)	> 1	> 1	> 1	> 1	> 1	–	–	–	–	–
C=CCOC(=O)Oc1c(C)c2c(c3c1CC1[C@H]4c5c(cc(C)c(OC)c5OCOC)C[C@@H]([C@H](O)N1[C@H]3CNC(=O)CCc1ccccc1)N4C)OCO2 (some centres unmarked)	0.1	0.1	0.1	0.1	0.1	–	–	–	–	–
COc1c(C)cc2c(c1O)[C@@H]1C3Cc4c(OC(C)=O)c(C)c5c(c4[C@H](CNC(=O)[C@H](C)NC(=O)CCc4ccccc4)N3[C@@H](C#N)[C@H](C2)N1C)OCO5 (some centres unmarked)	0.001	0.0006	0.0006	0.0006	0.001	–	–	–	–	–
CCC(=O)N[C@@H](C)C(=O)NC[C@H]1c2c(c(OC(C)=O)c(C)c3c2OCO3)CC2[C@H]3c4c(cc(C)c(OC)c4O)C[C@@H]([C@H](C#N)N21)N3C (some centres unmarked)	0.0007	0.0007	0.0007	0.0007	0.0007	–	–	–	–	–
COc1c(C)cc2c(c1O)[C@@H]1C3Cc4c(OC(C)=O)c(C)c5c(c4[C@H](CNC(=O)[C@H](C)NC(=O)Cc4ccccc4)N3[C@@H](O)[C@H](C2)N1C)OCO5 (some centres unmarked) [drawing 137]	0.0007	0.0007	0.0007	0.0007	0.0007	–	–	–	–	–
COc1c(C)cc2c(c1O)[C@@H]1C3Cc4c(O)c(C)c5c(c4[C@H](CNC(=O)/C=C/c4ccccc4)N3[C@@H](C#N)[C@H](C2)N1C)OCO5 (some centres unmarked)	0.001	0.001	0.001	0.001	0.001	–	–	–	–	–
C=CCOc1c(C)c2c(c3c1CC1[C@H]4c5c(cc(C)c(OC)c5OCOC)C[C@@H]([C@H](C#N)N1[C@H]3CO)N4C)OCO2 (some centres unmarked)	0.2	0.2	0.2	0.2	0.2	–	–	–	–	–
C=CCOC(=O)Oc1c(C)c2c(c3c1CC1[C@H]4c5c(cc(C)c(OC)c5OCOC)C[C@@H]([C@H](C#N)N1[C@H]3CNC(=O)OCC(Cl)(Cl)Cl)N4C)OCO2 (some centres unmarked)	0.1	0.1	0.1	0.1	0.1	–	–	–	–	–
COCOc1c(OC)c(C)cc2c1[C@@H]1C3Cc4c(O)c(C)c5c(c4[C@H](COC(=O)/C=C/c4cccc(C(F)(F)F)c4)N3[C@@H](C#N)[C@H](C2)N1C)OCO5 (some centres unmarked)	0.1	0.1	0.1	0.1	0.1	–	–	–	–	–
C/C=C/C(=O)N[C@@H](C)C(=O)NC[C@H]1c2c(c(OC(C)=O)c(C)c3c2OCO3)CC2[C@H]3c4c(cc(C)c(OC)c4O)C[C@@H]([C@H](O)N21)N3C (some centres unmarked)	0.007	0.001	0.001	0.007	0.001	–	–	–	–	–
CCCC(=O)OC[C@H]1c2c(c(O)c(C)c3c2OCO3)CC2[C@H]3c4c(cc(C)c(OC)c4OCOC)C[C@@H]([C@H](C#N)N21)N3C (some centres unmarked)	0.1	0.1	0.1	0.1	0.1	–	–	–	–	–
COCOc1c(OC)c(C)cc2c1[C@@H]1C3Cc4c(O)c(C)c5c(c4[C@H](CNC(=O)CCc4ccccc4)N3[C@@H](C#N)[C@H](C2)N1C)OCO5 (some centres unmarked)	0.1	0.1	0.1	0.1	0.1	–	–	–	–	–
COc1c(C)cc2c(c1O)[C@@H]1C3Cc4c(OC(C)=O)c(C)c5c(c4[C@H](CNC(=O)/C=C/c4cccc(C(F)(F)F)c4)N3[C@@H](O)[C@H](C2)N1C)OCO5 (some centres unmarked) [drawing 109]	–	–	–	–	–	0.0001	0.0001	0.0001	0.0001	0.0001
COCOc1c(OC)c(C)cc2c1[C@@H]1C3Cc4c(O)c(C)c5c(c4[C@H](COC(=O)CCc4ccccc4)N3[C@@H](C#N)[C@H](C2)N1C)OCO5 (some centres unmarked)	0.1	0.1	0.1	0.1	0.1	–	–	–	–	–
C=CCOC(=O)Oc1c(C)c2c(c3c1CC1[C@H]4c5c(cc(C)c(OC)c5O)C[C@@H]([C@H](C#N)N1[C@H]3CNC(=O)[C@H](C)N)N4C)OCO2 (some centres unmarked)	0.001	0.001	0.001	0.001	0.001	–	–	–	–	–
C=CCOC(=O)Oc1c(C)c2c(c3c1CC1[C@H]4c5c(cc(C)c(OC)c5O)C[C@@H]([C@H](C#N)N1[C@H]3CNC(=O)[C@H](C)NC(=S)Nc1ccccc1)N4C)OCO2 (some centres unmarked)	0.001	0.001	0.001	0.001	0.001	–	–	–	–	–
COc1c(C)cc2c(c1O)[C@@H]1C3Cc4c(OC(C)=O)c(C)c5c(c4[C@H](CNC(=O)[C@@H](NC(=O)OCc4ccccc4)C(C)C)N3[C@@H](C#N)[C@H](C2)N1C)OCO5 (some centres unmarked)	0.001	0.001	0.001	0.001	0.001	–	–	–	–	–
COc1c(C)cc2c(c1OC(C)=O)[C@@H]1C3Cc4c(OC(=O)CCl)c(C)c5c(c4[C@H](CNC(=O)CCc4ccccc4)N3[C@@H](C#N)[C@H](C2)N1C)OCO5 (some centres unmarked)	0.01	0.01	0.01	0.01	0.01	–	–	–	–	–
